Results taken from ChEMBL document CHEMBL1201862, “PubChem BioAssay data set” (2004).
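The compound was tested at five concentrations on cells cultured in 96-well plates, with a 48-hour exposure period. Here, GI50 denotes the concentration required for 50% inhibition of growth.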 Activity calls are given as the source filed them. No stated cut-off is given here; in the data, active = GI50 up to about 1.1 µM and inactive = higher.

Columns and labels:
Assay in all cases: NCI anticancer screen, dose series, 48 h
SNB-19 = tested on: SNB-19
HT-29 = tested on: HT-29
HCT-116 = tested on: HCT-116
OVCAR-3 = tested on: OVCAR-3
UACC-257 = tested on: UACC-257
PC-3 = tested on: PC-3
SF-268 = tested on: SF-268
KM12 = tested on: KM12
CAKI-1 = tested on: CAKI-1
SNB-75 = tested on: SNB-75
BT-549 = tested on: BT-549
SK-MEL-5 = tested on: SK-MEL-5
T47D = tested on: T47D
NCI-H460 = tested on: NCI-H460
MDA-MB-231 = tested on: MDA-MB-231
DU-145 = tested on: DU-145
UO-31 = tested on: UO-31
Hs-578T = tested on: Hs-578T
M14 = tested on: M14
NCI-H226 = tested on: NCI-H226

Measured: GI50

CN(C)c1ccc(C(c2ccc(Cl)cc2)c2ccc(N(C)C)cc2)cc1
inactive: SNB-19 > 100 µM | HT-29 > 100 µM | HCT-116 > 100 µM | OVCAR-3 > 100 µM | UACC-257 60.1 µM | PC-3 > 100 µM | SF-268 > 100 µM | KM12 > 100 µM | CAKI-1 > 100 µM | SNB-75 > 100 µM | BT-549 54.8 µM | SK-MEL-5 92.9 µM | T47D 64.7 µM | NCI-H460 > 100 µM | MDA-MB-231 > 100 µM | DU-145 > 100 µM | UO-31 > 100 µM | Hs-578T 90.6 µM | M14 > 100 µM

N#CC(Nc1ccccc1)c1ccc(C(C#N)Nc2ccccc2)cc1 (configuration not stated)
inactive: SNB-19 44.5 µM | HT-29 20.8 µM | HCT-116 16.7 µM | OVCAR-3 35.9 µM | UACC-257 81.3 µM | PC-3 28.8 µM | SF-268 > 100 µM | KM12 > 100 µM | CAKI-1 61.4 µM | BT-549 38.6 µM | SK-MEL-5 20.3 µM | T47D 24.8 µM | NCI-H460 44.6 µM | MDA-MB-231 > 100 µM | DU-145 44.1 µM | UO-31 21.1 µM | NCI-H226 > 100 µM | Hs-578T > 100 µM | M14 13.7 µM

CC(C)(C)C(=O)C(C(c1ccccc1)N1CCOCC1)N1CCOCC1 (configuration not stated)
inactive: SNB-19 > 100 µM | HT-29 > 100 µM | HCT-116 > 100 µM | OVCAR-3 > 100 µM | UACC-257 > 100 µM | PC-3 > 100 µM | SF-268 > 100 µM | KM12 > 100 µM | CAKI-1 > 100 µM | SNB-75 > 100 µM | BT-549 > 100 µM | T47D > 100 µM | NCI-H460 > 100 µM | MDA-MB-231 > 100 µM | DU-145 > 100 µM | UO-31 > 100 µM | Hs-578T > 100 µM | M14 > 100 µM

Cc1ccc(C(=O)OCC(C)C)cc1/N=N/N(C)C
inactive: SNB-19 > 76.7 µM | HT-29 16.1 µM | HCT-116 > 61.9 µM | OVCAR-3 28.6 µM | UACC-257 26 µM | PC-3 48.4 µM | SF-268 42.9 µM | KM12 38.8 µM | CAKI-1 43.8 µM | BT-549 79.6 µM | SK-MEL-5 > 60.4 µM | T47D 35.3 µM | NCI-H460 > 100 µM | MDA-MB-231 > 100 µM | DU-145 > 100 µM | UO-31 41.3 µM | NCI-H226 > 100 µM | Hs-578T > 100 µM | M14 67 µM

CCN(CC)C(=O)N[C@@H](CC(C)C)C(=O)NC
inactive: SNB-19 > 100 µM | HT-29 > 100 µM | HCT-116 > 100 µM | OVCAR-3 > 100 µM | PC-3 73.6 µM | SF-268 > 100 µM | KM12 > 100 µM | CAKI-1 > 100 µM | SNB-75 > 100 µM | BT-549 > 100 µM | SK-MEL-5 > 100 µM | T47D > 100 µM | NCI-H460 > 100 µM | MDA-MB-231 > 100 µM | DU-145 > 100 µM | UO-31 > 100 µM | Hs-578T > 100 µM | M14 > 100 µM

Nc1n[n+]2cc(-c3ccccc3)n(CC(=O)c3ccccc3)c2s1
inactive: SNB-19 21.7 µM | HT-29 27.2 µM | HCT-116 16.7 µM | OVCAR-3 23.8 µM | UACC-257 25.5 µM | PC-3 39 µM | SF-268 20.3 µM | KM12 19.8 µM | CAKI-1 > 100 µM | BT-549 19.6 µM | SK-MEL-5 23.1 µM | T47D 22.6 µM | NCI-H460 > 100 µM | MDA-MB-231 29.5 µM | DU-145 50.9 µM | UO-31 76.2 µM | NCI-H226 32.4 µM | Hs-578T 17 µM | M14 21.3 µM
